Measured values taken from ChEMBL document CHEMBL1687734, “Pharmacokinetics of EDP-420 after multiple oral doses in healthy adult volunteers and in a bioequivalence study” (Antimicrob Agents Chemother, 2009).

Legend:
[1] = AUC (0 to 24 hrs) in Alveolar macrophage of healthy human at 400 mg, po administered as single dose; type: ADME, organism-based; conditions: alveolar macrophages, read-out: Drug uptake
Homo sapiens [2] = test: Toxicity in healthy human in 8 hrs fasted healthy human assessed as changes in physical examinations at 200 mg, po administered as single dose of suspension; type: organism-based; conditions: in vivo
[3] = Half life in healthy human plasma at 200 mg, po once daily for 3 days measured after 3 days; type: ADME, organism-based
[4] = Cmax in healthy human plasma at 200 mg, po once daily for 3 days measured after 1 day; type: ADME, organism-based; parameters: dose 200 mg, route oral
[5] = Tmax in 8 hrs fasted healthy human plasma at 200 mg, po administered as single dose of suspension; type: ADME, organism-based
Homo sapiens [6] = test: Toxicity in healthy human assessed as severe adverse events at 400 mg administered once on day 1 followed by 200 mg once daily for 2 days during 3 days of treatment; type: organism-based; conditions: in vivo
Homo sapiens [7] = test: Ratio of Cmax in 8 hrs fasted healthy human plasma at 200 mg, po administered as single dose of two-100 mg capsules to cmax in 8 hrs fasted healthy human plasma assessed as EDP-420 9-keto level at 200 mg, po administered as single dose of two-100 mg capsules; type: ADME, organism-based; conditions: in vivo
[8] = Cmax in healthy human plasma at loading dose of 400 mg/day, po once daily for 3 days measured after 1 day; type: ADME, organism-based; parameters: dose 400 mg/day, route oral
[9] = Tmax in healthy human plasma at 200 mg, po once daily for 3 days measured after 3 days; type: ADME, organism-based
[10] = Ratio of AUC (0 to 24 hrs) in epithelial lining fluid of healthy human to AUC (0 to 24 hrs) in healthy human plasma at 400 mg, po administered as single dose; type: ADME, organism-based
[11] = Ratio of drug concentration in Alveolar macrophage of healthy human at 400 mg, po administered as single dose after 24 hrs to drug concentration in Alveolar macrophage of healthy human at 500 mg, po administered as single dose after 24 hrs; type: ADME, organism-based; conditions: in vivo
[12] = AUC (0 to infinity) in 8 hrs fasted healthy human plasma at 200 mg, po administered as single dose of suspension; type: ADME, organism-based; parameters: dose 200 mg, route oral, time infinity
[13] = AUC (0 to infinity) in healthy human plasma at 400 mg administered once on day 1 followed by 200 mg once daily for 2 days during 3 days of treatment measured after 3 days; type: ADME, organism-based; parameters: dose 400 mg, time infinity
[14] = Cmax in healthy human plasma at 400 mg administered once on day 1 followed by 200 mg once daily for 2 days during 3 days of treatment measured after 3 days; type: ADME, organism-based; parameters: dose 400 mg
Homo sapiens [15] = test: Ratio of AUC (0 to 24 hrs) in healthy human plasma at loading dose of 400 mg/day, po once daily measured on 1 day to AUC (0 to 24 hrs) in healthy human plasma at 400 mg administered once on day 1 followed by 200 mg once daily for 2 days during 3 days of treatment measured on day 3; type: ADME, organism-based; conditions: in vivo
Homo sapiens [16] = test: Toxicity in healthy human assessed as occurrence of mortality at 400 mg administered once on day 1 followed by 200 mg once daily for 2 days during 3 days of treatment; type: organism-based; conditions: in vivo
Homo sapiens [17] = test: Ratio of Cmax in high-fat fed healthy human plasma at 200 mg, po administered as single dose of two-100 mg capsules to cmax in high-fat fed healthy human plasma assessed as EDP-420 9-keto level at 200 mg, po administered as single dose of two-100 mg capsules; type: ADME, organism-based; conditions: in vivo
Homo sapiens [18] = test: Toxicity in healthy human assessed as occurrence of mortality at 200 mg, po once daily for 3 days; type: organism-based; conditions: in vivo, 72 h
[19] = Cmax in healthy human plasma at 200 mg, po once daily for 3 days measured after 3 days; type: ADME, organism-based; parameters: dose 200 mg, route oral
[20] = AUC (0 to last) in 8 hrs fasted healthy human plasma at 200 mg, po administered as single dose of two-100 mg capsules; type: ADME, organism-based; parameters: dose 200 mg, route oral, time 0 - last
[21] = Cmax in 8 hrs fasted healthy human plasma at 200 mg, po administered as single dose of suspension; type: ADME, organism-based; parameters: dose 200 mg, route oral
[22] = Ratio of drug concentration in Epithelial lining fluid of healthy human at 400 mg, po administered as single dose after 24 hrs to drug concentration in Epithelial lining fluid of healthy human at 500 mg, po administered as single dose after 24 hrs; type: ADME, organism-based; conditions: in vivo
[23] = AUC (0 to last) in healthy human plasma at loading dose of 400 mg/day, po once daily for 3 days measured after 1 day; type: ADME, organism-based; parameters: dose 400 mg/day, time 0 - last, route oral
[24] = Drug concentration in Alveolar macrophage of healthy human at 400 mg, po administered as single dose after 24 hrs; type: ADME, organism-based; conditions: alveolar macrophages, read-out: Drug uptake
Homo sapiens [25] = test: Ratio of AUC (0 to infinity) in 8 hrs fasted healthy human plasma at 200 mg, po administered as single dose of suspension to AUC (0 to infinity) in 8 hrs fasted healthy human plasma assessed as EDP-420 9-keto level at 200 mg, po administered as single dose of suspension; type: ADME, organism-based; conditions: in vivo
Homo sapiens [26] = test: Toxicity in high-fat fed healthy human assessed as changes in vital signs at 200 mg, po administered as single dose of two-100 mg capsules; type: organism-based; conditions: in vivo
[27] = Half life in 8 hrs fasted healthy human plasma at 200 mg, po administered as single dose of suspension; type: ADME, organism-based
Homo sapiens [28] = test: Ratio of AUC (0 to infinity) in high-fat fed healthy human plasma at 200 mg, po administered as single dose of two-100 mg capsules to AUC (0 to infinity) in high-fat fed healthy human plasma assessed as EDP-420 9-keto level at 200 mg, po administered as single dose of two-100 mg capsules; type: ADME, organism-based; conditions: in vivo

- AUC [1]: 2560 µg·h/mL
- half-life [3]: 17.4 h
- Cmax [4]: 432 ng/mL
- Tmax [5]: 3.5 h
- Ratio (Homo sapiens [7]): 0.058
- Cmax [8]: 548 ng/mL
- Tmax [9]: 3.25 h
- Kp [10]: 20.3
- Ratio [11]: > 2
- AUC(0-inf) [12]: 8.35 µg·h/mL
- AUC(0-inf) [13]: 15.1 µg·h/mL
- Cmax [14]: 514 ng/mL
- Ratio AUC (Homo sapiens [15]): 0.99
- Ratio (Homo sapiens [17]): 0.092
- Cmax [19]: 559 ng/mL
- AUC(0-t) [20]: 8.94 µg·h/mL
- Cmax [21]: 381 ng/mL
- Ratio [22]: > 72
- AUC(0-t) at 24 h [23]: 8.1 µg·h/mL
- concentration at 24 h [24]: 68000 ng/mL
- Ratio (Homo sapiens [25]): 0.101
- half-life [27]: 16.8 h
- Ratio (Homo sapiens [28]): 0.147
Structure (SMILES): CC[C@H]1OC(=O)[C@H](C)C(=O)[C@H](C)[C@@H](O[C@@H]2O[C@H](C)C[C@H](N(C)C)[C@H]2O)[C@@]2(C)C[C@@H](C)/C(=N\C(C)=O)[C@H](C)[C@@H](OC/C(=N\OCc3ccc(-n4cccn4)nc3)CO2)[C@]1(C)O [MODITHROMYCIN]
- Activity (Homo sapiens [2]): Non-toxic
- Activity (Homo sapiens [6]): Non-toxic
- Activity (Homo sapiens [16]): Non-toxic
- Activity (Homo sapiens [18]): Non-toxic
- Activity (Homo sapiens [26]): Non-toxic
